{"source": "ChEMBL document CHEMBL5137054", "about": "“Xyloketal B Reverses Nutritional Hepatic Steatosis, Steatohepatitis, and Liver Fibrosis through Activation of the PPARα/PGC1α Signaling Pathway” (J Nat Prod, 2022)", "key": {"Mus musculus [1]": {"system": "Mus musculus", "test": "Upregulation of cytochrome P450-4A10 enzyme expression in liver of HFD-induced C57BL/6J mouse model of NAFL at 15 mg/kg/day, ip administered from week 7 to week 12 by immunoblotting analysis", "type": "functional, organism-based", "conditions": "time 6.0 weeks"}, "Mus musculus [2]": {"system": "Mus musculus", "test": "Anti-inflammatory activity against MCD-induced C57BL/6J mouse model of nonalcoholic steatohepatitis assessed as reduction in necroinflammation foci in liver at 20 to 40 mg/kg/day, ip administered from week 3 to week 4 by H&E staining based light microscopic analysis", "type": "functional, organism-based", "conditions": "dose 20-40 mg/kg/day, time 2.0 weeks"}, "Mus musculus [3]": {"system": "Mus musculus", "test": "Upregulation of ACAA1 enzyme expression in liver of HFD-induced C57BL/6J mouse model of NAFL administered intraperitoneally from week 7 to week 12 by immunoblotting analysis", "type": "functional", "conditions": "dose 20-40 mg/kg/day, route ip, time 6.0 weeks, DDE = dose-dependent effect"}, "Mus musculus [4]": {"system": "Mus musculus", "test": "Reduction in hepatic steatosis in HFD-induced C57BL/6J mouse model of NAFL assessed as reduction in serum AST/ALT ratio at 20 to 40 mg/kg/day, ip administered from week 7 to week 12", "type": "functional, organism-based", "conditions": "dose 20-40 mg/kg/day, time 6.0 weeks"}, "Mus musculus [5]": {"system": "Mus musculus", "test": "Upregulation of Acox1 gene transcriptional level in HFD-induced C57BL/6J mouse model of NAFL at 20 to 40 mg/kg/day, ip administered from week 7 to week 12 by qRT-PCR analysis", "type": "functional, organism-based", "conditions": "dose 20-40 mg/kg/day, time 6.0 weeks"}, "Mus musculus [6]": {"system": "Mus musculus", "test": "Anti-inflammatory activity against MCD-induced C57BL/6J mouse model of nonalcoholic steatohepatitis assessed as downregulation of interleukin 6 expression in liver at 20 to 40 mg/kg/day, ip administered from week 3 to week 4 by immunoblotting analysis analysis", "type": "functional, organism-based", "conditions": "dose 20-40 mg/kg/day, time 2.0 weeks"}, "Mus musculus [7]": {"system": "Mus musculus", "test": "Upregulation of peroxisomal bifunctional enzyme expression in liver of HFD-induced C57BL/6J mouse model of NAFL administered intraperitoneally from week 7 to week 12 by immunoblotting analysis", "type": "functional", "conditions": "dose 20-40 mg/kg/day, route ip, time 6.0 weeks, DDE = dose-dependent effect"}, "Mus musculus [8]": {"system": "Mus musculus", "test": "Reduction in hepatic steatosis in HFD-induced C57BL/6J mouse model of NAFL assessed as reduction in HFD-induced body weight gain at 20 to 40 mg/kg/day, ip administered from week 7 to week 12", "type": "functional, organism-based", "conditions": "dose 20-40 mg/kg/day, time 6.0 weeks"}, "Mus musculus [9]": {"system": "Mus musculus", "test": "Antifibrotic activity against MCD-induced C57BL/6J mouse model of liver fibrosis assessed as reduction in alphaSMA level in liver at 20 to 40 mg/kg, ip administered from week 3 to week 6 by […]", "type": "functional, organism-based", "conditions": "dose 20-40 mg/kg, time 4.0 weeks"}, "Mus musculus [10]": {"system": "Mus musculus", "test": "Antifibrotic activity against MCD-induced C57BL/6J mouse model of liver fibrosis assessed as reduction in TIMP1 level in liver administered intraperitoneally from week 3 to week 6 by immunoblotting analysis", "type": "functional, organism-based", "conditions": "dose 20-40 mg/kg, route ip, time 4.0 weeks, DDE = dose-dependent effect"}, "Mus musculus [11]": {"system": "Mus musculus", "test": "Antifibrotic activity against MCD-induced C57BL/6J mouse model of liver fibrosis assessed as reduction in MMP3 level in liver administered intraperitoneally from week 3 to week 6 by immunoblotting analysis", "type": "functional, organism-based", "conditions": "dose 20-40 mg/kg, route ip, time 4.0 weeks, DDE = dose-dependent effect"}, "Mus musculus [12]": {"system": "Mus musculus", "test": "Reduction in hepatic steatosis in HFD-induced C57BL/6J mouse model of NAFL assessed as reduction in size of lipid droplets in hepatocytes at 20 to 40 mg/kg/day, ip administered from week 7 to week 12 by H&E staining analysis", "type": "functional, organism-based", "conditions": "dose 20-40 mg/kg/day, time 6.0 weeks"}, "Mus musculus [13]": {"system": "Mus musculus", "test": "Reduction in hepatic steatosis in HFD-induced C57BL/6J mouse model of NAFL assessed as reduction in serum triglyceride level at 20 to 40 mg/kg/day, ip administered from week 7 to week 12", "type": "functional, organism-based", "conditions": "dose 20-40 mg/kg/day, time 6.0 weeks"}, "Mus musculus [14]": {"system": "Mus musculus", "test": "Anti-inflammatory activity against MCD-induced C57BL/6J mouse model of nonalcoholic steatohepatitis assessed as downregulation of IL1beta expression in liver at 20 to 40 mg/kg/day, ip administered from week 3 to week 4 by immunoblotting analysis", "type": "functional, organism-based", "conditions": "dose 20-40 mg/kg/day, time 2.0 weeks"}, "[15]": {"test": "Toxicity in C57BL/6J mouse assessed as effect on serum AST/ALT ratio at 40 mg/kg, ip", "type": "organism-based", "conditions": "in vivo"}, "Mus musculus [16]": {"system": "Mus musculus", "test": "Upregulation of peroxisomal acyl-coenzyme A oxidase-2 enzyme expression in liver of HFD-induced C57BL/6J mouse model of NAFL administered intraperitoneally from week 7 to week 12 by immunoblotting analysis", "type": "functional", "conditions": "dose 20-40 mg/kg/day, route ip, time 6.0 weeks, DDE = dose-dependent effect"}, "Mus musculus [17]": {"system": "Mus musculus", "test": "Upregulation of cytochrome P450-4A10 enzyme expression in liver of HFD-induced C57BL/6J mouse model of NAFL administered intraperitoneally from week 7 to week 12 by immunoblotting analysis", "type": "functional", "conditions": "dose 20-40 mg/kg/day, route ip, time 6.0 weeks, DDE = dose-dependent effect"}, "Mus musculus [18]": {"system": "Mus musculus", "test": "Reduction in hepatic steatosis in HFD-induced C57BL/6J mouse model of NAFL assessed as reduction in serum glucose level at 20 to 40 mg/kg/day, ip administered from week 7 to week 12", "type": "functional, organism-based", "conditions": "dose 20-40 mg/kg/day, time 6.0 weeks"}, "[19]": {"test": "Toxicity in C57BL/6J mouse assessed as effect on body weight at 40 mg/kg, ip", "type": "organism-based", "conditions": "in vivo"}, "Mus musculus [20]": {"system": "Mus musculus", "test": "Upregulation of Cpt1c gene transcriptional level in HFD-induced C57BL/6J mouse model of NAFL at 20 to 40 mg/kg/day, ip administered from week 7 to week 12 by qRT-PCR analysis", "type": "functional, organism-based", "conditions": "dose 20-40 mg/kg/day, time 6.0 weeks"}, "Mus musculus [21]": {"system": "Mus musculus", "test": "Upregulation of ACAA1 enzyme expression in liver of HFD-induced C57BL/6J mouse model of NAFL at 15 mg/kg/day, ip administered from week 7 to week 12 by immunoblotting analysis", "type": "functional, organism-based", "conditions": "time 6.0 weeks"}, "Mus musculus [22]": {"system": "Mus musculus", "test": "Upregulation of peroxisomal acyl-coenzyme A oxidase-2 enzyme expression in liver of HFD-induced C57BL/6J mouse model of NAFL at 15 mg/kg/day, ip administered from week 7 to week 12 by immunoblotting analysis", "type": "functional, organism-based", "conditions": "time 6.0 weeks"}, "Mus musculus [23]": {"system": "Mus musculus", "test": "Antifibrotic activity against MCD-induced C57BL/6J mouse model of liver fibrosis assessed as reduction in TGFbeta level in liver administered intraperitoneally from week 3 to week 6 by immunoblotting analysis", "type": "functional, organism-based", "conditions": "dose 20-40 mg/kg, route ip, time 4.0 weeks, DDE = dose-dependent effect"}, "[24]": {"test": "Toxicity in C57BL/6J mouse assessed as effect on lipid droplets in hepatocytes at 40 mg/kg, ip by H&E staining analysis", "type": "organism-based", "conditions": "in vivo"}, "Mus musculus [25]": {"system": "Mus musculus", "test": "In vivo activation of PPARalpha/PGC1alpha pathway in HFD-induced C57BL/6J mouse model of NAFL assessed as increase in PPARalpha expression in liver administered intraperitoneally from week 7 to week 12 by immunoblotting analysis", "type": "functional, organism-based", "conditions": "dose 20-40 mg/kg/day, route ip, time 6.0 weeks, DDE = dose-dependent effect"}, "Mus musculus [26]": {"system": "Mus musculus", "test": "Upregulation of peroxisomal acyl-coenzyme A oxidase-1 enzyme expression in liver of HFD-induced C57BL/6J mouse model of NAFL administered intraperitoneally from week 7 to week 12 by immunoblotting analysis", "type": "functional", "conditions": "dose 20-40 mg/kg/day, route ip, time 6.0 weeks, DDE = dose-dependent effect"}, "Mus musculus [27]": {"system": "Mus musculus", "test": "In vivo activation of PPARalpha/PGC1alpha pathway in HFD-induced C57BL/6J mouse model of NAFL assessed as increase in PGC1alpha expression in liver administered intraperitoneally from week 7 to week 12 by immunoblotting analysis", "type": "functional, organism-based", "conditions": "dose 20-40 mg/kg/day, route ip, time 6.0 weeks"}, "Mus musculus [28]": {"system": "Mus musculus", "test": "Upregulation of Acox2 gene transcriptional level in HFD-induced C57BL/6J mouse model of NAFL at 20 to 40 mg/kg/day, ip administered from week 7 to week 12 by qRT-PCR analysis", "type": "functional, organism-based", "conditions": "dose 20-40 mg/kg/day, time 6.0 weeks"}, "Mus musculus [29]": {"system": "Mus musculus", "test": "Upregulation of long-chain specific acyl-CoA dehydrogenase gene transcriptional level in HFD-induced C57BL/6J mouse model of NAFL at 20 to 40 mg/kg/day, ip administered from week 7 to week 12 by qRT-PCR analysis", "type": "functional, organism-based", "conditions": "dose 20-40 mg/kg/day, time 6.0 weeks"}}, "note": "Calls of active or inactive are those of the source. The rule behind the calls is not given here."}
{"smiles": "C[C@H]1CO[C@]2(C)Oc3cc(O)c4c(c3C[C@H]12)O[C@@]1(C)OC[C@H](C)[C@H]1C4", "values": [{"measurement": "Activity", "setting": "Mus musculus [1]", "result": "Active"}, {"measurement": "Activity", "setting": "Mus musculus [2]", "result": "Active"}, {"measurement": "Activity", "setting": "Mus musculus [3]", "result": "Dde"}, {"measurement": "Activity", "setting": "Mus musculus [4]", "result": "Active"}, {"measurement": "Activity", "setting": "Mus musculus [5]", "result": "Active"}, {"measurement": "Activity", "setting": "Mus musculus [6]", "result": "Active"}, {"measurement": "Activity", "setting": "Mus musculus [7]", "result": "Dde"}, {"measurement": "Activity", "setting": "Mus musculus [8]", "result": "Active"}, {"measurement": "Activity", "setting": "Mus musculus [9]", "result": "Active"}, {"measurement": "Activity", "setting": "Mus musculus [10]", "result": "Dde"}, {"measurement": "Activity", "setting": "Mus musculus [11]", "result": "Dde"}, {"measurement": "Activity", "setting": "Mus musculus [12]", "result": "Active"}, {"measurement": "Activity", "setting": "Mus musculus [13]", "result": "Active"}, {"measurement": "Activity", "setting": "Mus musculus [14]", "result": "Active"}, {"measurement": "Activity", "setting": "[15]", "result": "Non-Toxic"}, {"measurement": "Activity", "setting": "Mus musculus [16]", "result": "Dde"}, {"measurement": "Activity", "setting": "Mus musculus [17]", "result": "Dde"}, {"measurement": "Activity", "setting": "Mus musculus [18]", "result": "Active"}, {"measurement": "Activity", "setting": "[19]", "result": "Non-Toxic"}, {"measurement": "Activity", "setting": "Mus musculus [20]", "result": "Active"}, {"measurement": "Activity", "setting": "Mus musculus [21]", "result": "Active"}, {"measurement": "Activity", "setting": "Mus musculus [22]", "result": "Active"}, {"measurement": "Activity", "setting": "Mus musculus [23]", "result": "Dde"}, {"measurement": "Activity", "setting": "[24]", "result": "Non-Toxic"}, {"measurement": "Activity", "setting": "Mus musculus [25]", "result": "Dde"}, {"measurement": "Activity", "setting": "Mus musculus [26]", "result": "Dde"}, {"measurement": "Activity", "setting": "Mus musculus [27]", "result": "Active"}, {"measurement": "Activity", "setting": "Mus musculus [28]", "result": "Active"}, {"measurement": "Activity", "setting": "Mus musculus [29]", "result": "Active"}]}
